This passage reports herbicidal activity results from patent US9549558B2, “Herbicidal azines” (BASF SE, priority 2012, dated 2017).

Format in all cases: in vivo
One assay concerns STEME (Stellaria media). Nature of the assay: greenhouse pre-emergence herbicidal test. The source says:
(§1) The culture containers used were plastic flowerpots containing loamy sand with approximately 3.0% of humus as the substrate. The seeds of the test plants were sown separately for each species.
(§2) For the pre-emergence treatment, the active ingredients, which had been suspended or emulsified in water, were applied directly after sowing by means of finely distributing nozzles. The containers were irrigated gently to promote germination and growth and subsequently covered with transparent plastic hoods until the plants had rooted. This cover caused uniform germination of the test plants, unless this had been impaired by the active ingredients.
(§3) Depending on the species, the plants were kept at 10-25° C. or 20-35° C., respectively.
(§4) The test period extended over 2 to 4 weeks. During this time, the plants were tended, and their response to the individual treatments was evaluated.
(§5) Evaluation was carried out using a scale from 0 to 100. 100 means no emergence of the plants, or complete destruction of at least the aerial moieties, and 0 means no damage, or normal course of growth. A moderate herbicidal activity is given at values of at least 60, a good herbicidal activity is given at values of at least 70, and a very good herbicidal activity is given at values of at least 85.
(§6) The plants used in the greenhouse experiments were of the following species: […]

The test system of a further assay is VIOAR (Viola arvensis). The assay is described as follows: greenhouse pre-emergence herbicidal test.
Excerpt: as §1, §2, §3, §4, §5, §6

For assay [1], the system named is CAPBP (Capsella bursa-pastoris). Nature of the assay: greenhouse pre-emergence herbicidal test. The following applies: CAPBP.
Excerpt: as §1, §2, §3, §4, §5, §6

In assay [2] the test system is ABUTH (Abutilon theophrasti). Nature of the assay: greenhouse post-emergence herbicidal test.
Excerpt: as §1
(§7) For the post-emergence treatment, the test plants were first grown to a height of 3 to 15 cm, depending on the plant habit, and only then treated with the active ingredients which had been suspended or emulsified in water. For this purpose, the test plants were either sown directly and grown in the same containers, or they were first grown separately as seedlings and transplanted into the test containers a few days prior to treatment.
as §3, §4, §5, §6

For assay [3], the system named is AMARE (Amaranthus retroflexus). Nature of the assay: greenhouse post-emergence herbicidal test.
Excerpt: as §1, §7, §3, §4, §5, §6

The test system of assay [4] is POLCO (Polygonum convolvulus). The assay is described as follows: greenhouse post-emergence herbicidal test.
Excerpt: as §1, §7, §3, §4, §5, §6

The test system of the next assay is SETVI (Setaria viridis). The assay is described as follows: greenhouse pre-emergence herbicidal test. The following applies: 0.0625 kg/ha.
Excerpt: as §1, §2, §3, §4, §5, §6

The subject of assay [5] is CHEAL (Chenopodium album). The assay is described as follows: greenhouse post-emergence herbicidal test.
Excerpt: as §1, §7, §3, §4, §5, §6

Regarding `CC(F)(F)c1nc(N)nc(Nc2c(F)cc(F)cc2F)n1` [Example 138], the herbicidal activity entry (in the assay on STEME (Stellaria media) (125 g/ha); with VIOAR (Viola arvensis) (125 g/ha); in assay [1] (125 g/ha)) was “very good (a very good herbicidal activity is given at values of at least 85)” in each case.

As to `CC(C)(F)c1nc(N)nc(Nc2c(F)ccc(F)c2Cl)n1` [Example 36], the herbicidal activity result in assay [2] (0.062 kg/ha) and in assay [3] (0.062 kg/ha) was “very good (a very good herbicidal activity is given at values of at least 85)” throughout.

On to `CC(C)(F)c1nc(N)nc(Nc2c(F)cc(F)cc2F)n1` [Example 28], for which the herbicidal activity entry in assay [2] (0.125 kg/ha) and in assay [3] (0.125 kg/ha) was “very good (a very good herbicidal activity is given at values of at least 85)” throughout.

`CC(F)c1nc(N)nc(Nc2c(F)c(F)cc(F)c2F)n1` (stereo not drawn) [Example 17]: the herbicidal activity entry in assay [2] (0.125 kg/ha) and in assay [4] (0.125 kg/ha) was “very good (a very good herbicidal activity is given at values of at least 85)” in each case.

In the case of `CC(F)c1nc(N)nc(Nc2c(F)cccc2F)n1` (stereo not drawn) [Example 12], the herbicidal activity result (in the assay on VIOAR (Viola arvensis) (0.125 kg/ha); in assay [1] (0.125 kg/ha)) was “very good (a very good herbicidal activity is given at values of at least 85)” in each case.

As to `CC(F)c1nc(N)nc(Nc2c(F)cc(F)cc2F)n1` (stereo not drawn) [Example 15], the herbicidal activity entry with SETVI (Setaria viridis) is given as “moderate (A moderate herbicidal activity is given at values of at least 60)”.

Regarding `CC(C)(F)c1nc(N)nc(Nc2ccc(F)c(F)c2F)n1` [Example 26], the herbicidal activity result in the assay with VIOAR (Viola arvensis) (0.125 kg/ha) was “very good (a very good herbicidal activity is given at values of at least 85)”; in assay [1] (0.125 kg/ha) it was “good (a good herbicidal activity is given at values of at least 70)”.

For `Nc1nc(C2=CCCCC2)nc(N(C(=O)C2=CCCCC2)c2c(F)c(F)c(F)c(F)c2F)n1` [Example 303], the herbicidal activity entry in assay [2] (500 g/ha) and in assay [3] (500 g/ha) was “good (a good herbicidal activity is given at values of at least 70)” each time.

Consider `CC(C)(F)c1nc(N)nc(Nc2cc(F)cc(F)c2)n1` [Example 25], for which the herbicidal activity result with VIOAR (Viola arvensis) (0.125 kg/ha) is on record as “very good (a very good herbicidal activity is given at values of at least 85)”.

On to `Nc1nc(Nc2c(F)cc(F)cc2F)nc(C2CC2)n1` [Example 143], for which the figures for the herbicidal activity result in assay [5] (500 g/ha), in assay [4] (500 g/ha) and in assay [3] (500 g/ha) were “very good (a very good herbicidal activity is given at values of at least 85)”, “good (a good herbicidal activity is given at values of at least 70)” and “very good (a very good herbicidal activity is given at values of at least 85)”, respectively.

As to `CC(F)c1nc(N)nc(Nc2c(F)cc(Br)cc2F)n1` (stereo not drawn) [Example 19], the herbicidal activity result in the assay on VIOAR (Viola arvensis) (0.125 kg/ha) is “good (a good herbicidal activity is given at values of at least 70)”.

In the case of `CC(C)(F)c1nc(N)nc(Nc2ccc(F)cc2F)n1` [Example 22], the herbicidal activity entry in the assay on VIOAR (Viola arvensis) (0.125 kg/ha) is on record as “good (a good herbicidal activity is given at values of at least 70)”.

Regarding `Nc1nc(Nc2c(F)c(F)c(Br)c(F)c2F)nc(C2CCCCC2)n1` [Example 209], the herbicidal activity result was “very good (a very good herbicidal activity is given at values of at least 85)” in the assay on STEME (Stellaria media) (250 g/ha), “good (a good herbicidal activity is given at values of at least 70)” in the assay with VIOAR (Viola arvensis) (250 g/ha) and “good (a good herbicidal activity is given at values of at least 70)” in assay [1] (250 g/ha).

Regarding `Nc1nc(Nc2c(F)c(F)c(Br)c(F)c2F)nc(C2CCCC2)n1` [Example 210], the herbicidal activity entry (with STEME (Stellaria media) (250 g/ha); in the assay on VIOAR (Viola arvensis) (250 g/ha); in assay [1] (250 g/ha)) was “very good (a very good herbicidal activity is given at values of at least 85)” in each case.

Turning to `CC(C)(F)c1nc(N)nc(Nc2c(F)cc(C#N)cc2F)n1` [Example 71], the values for the herbicidal activity entry in assay [5] (125 g/ha) and in assay [4] (125 g/ha) were “very good (a very good herbicidal activity is given at values of at least 85)” and “good (a good herbicidal activity is given at values of at least 70)”, respectively.

Turning to `CC(C)(Cl)c1nc(N)nc(Nc2c(F)ccc(Cl)c2F)n1` [Example 108], the herbicidal activity entry (in the assay with STEME (Stellaria media) (250 g/ha); in the assay on VIOAR (Viola arvensis) (250 g/ha); in assay [1] (250 g/ha)) was “very good (a very good herbicidal activity is given at values of at least 85)” in each case.

Regarding `CC(C)(F)c1nc(N)nc(Nc2cc(F)c(F)c(F)c2)n1` [Example 29], the herbicidal activity entry in the assay with VIOAR (Viola arvensis) (0.125 kg/ha) is “moderate (A moderate herbicidal activity is given at values of at least 60)”.

As for `CC(C)(F)c1nc(N)nc(Nc2c(F)cccc2C#N)n1` [Example 38], the herbicidal activity result in assay [5] (0.125 kg/ha) and in assay [3] (0.125 kg/ha) was “very good (a very good herbicidal activity is given at values of at least 85)” in each case.

For `CC(C)c1nc(N)nc(Nc2c(F)c(F)cc(F)c2F)n1` [Example 6], the herbicidal activity entry in assay [4] (0.031 kg/ha) is recorded as “good (a good herbicidal activity is given at values of at least 70)”; in assay [3] (0.031 kg/ha), “very good (a very good herbicidal activity is given at values of at least 85)”.

Turning to `COc1ccc(F)c(F)c1Nc1nc(N)nc(C(C)(C)F)n1` [Example 61], the herbicidal activity result in assay [4] (0.062 kg/ha) and in assay [3] (0.062 kg/ha) was “very good (a very good herbicidal activity is given at values of at least 85)” throughout.

As for `Nc1nc(Nc2c(F)c(F)cc(F)c2F)nc(C(F)(F)F)n1` [Example 132], the herbicidal activity result in assay [5] (500 g/ha), in assay [4] (500 g/ha) and in assay [3] (500 g/ha) was “very good (a very good herbicidal activity is given at values of at least 85)” in each case.

On to `CC(C)(C)c1nc(N)nc(Nc2c(F)ccc(Cl)c2F)n1` [Example 81], for which the herbicidal activity result (in the assay with STEME (Stellaria media) (125 g/ha); in the assay with VIOAR (Viola arvensis) (125 g/ha); in assay [1] (125 g/ha)) was “very good (a very good herbicidal activity is given at values of at least 85)” throughout.

For `Cc1ccc(F)c(Nc2nc(N)nc(C(C)(C)F)n2)c1F` [Example 40], the herbicidal activity entry in assay [5] (0.031 kg/ha) and in assay [3] (0.031 kg/ha) was “very good (a very good herbicidal activity is given at values of at least 85)” in each case.

For the compound `Nc1nc(Nc2c(F)ccc(F)c2F)nc(C(F)(F)F)n1` [Example 127], the herbicidal activity result was “very good (a very good herbicidal activity is given at values of at least 85)” in assay [5] (1000 g/ha), “good (a good herbicidal activity is given at values of at least 70)” in assay [4] (1000 g/ha) and “very good (a very good herbicidal activity is given at values of at least 85)” in assay [3] (1000 g/ha).

As for `CC(F)(F)c1nc(N)nc(Nc2c(F)c(F)cc(F)c2F)n1` [Example 8], the herbicidal activity result in assay [5] (0.062 kg/ha) and in assay [2] (0.062 kg/ha) was “very good (a very good herbicidal activity is given at values of at least 85)” throughout.

Take `Nc1nc(C2CC2)nc(N(C(=O)C2CC2)c2c(F)c(F)cc(F)c2F)n1` [Example 285]: the values for the herbicidal activity entry in assay [5] (62 g/ha) and in assay [3] (62 g/ha) were “good (a good herbicidal activity is given at values of at least 70)” and “very good (a very good herbicidal activity is given at values of at least 85)”, respectively.

As to `Nc1nc(Nc2c(F)c(F)c(F)c(F)c2F)nc(C(F)(F)Cl)n1` [Example 146], the herbicidal activity result in assay [5] (500 g/ha), in assay [4] (500 g/ha) and in assay [3] (500 g/ha) was “very good (a very good herbicidal activity is given at values of at least 85)” each time.

Consider `Nc1nc(Nc2c(F)ccc(Cl)c2F)nc(C(F)(F)F)n1` [Example 126], for which the herbicidal activity result was “good (a good herbicidal activity is given at values of at least 70)” in assay [2] (1000 g/ha) and “very good (a very good herbicidal activity is given at values of at least 85)” in assay [3] (1000 g/ha).
